System: Atoh1 expression in mouse cerebellar neural precursor cells
Experiment: Atoh1 induction assay in mouse cerebellar neural precursor cells (NPCs), Atoh1-GFP reporter
Type: cell-based
Conditions: 10 doses 50 μM to 200 nM, 72 hours treatment, DMSO control = 1, more than 5 considered significant, read-out: fold difference (maximum fold difference of GFP average intensity in cell nuclei over the DMSO control)
Description: Compounds of the present disclosure were assessed for their ability to increase the Atoh1 expression in mouse cerebellar neural precursor cells. The ability of compounds of the present disclosure to induce new hair cell formation was assessed in ex vivo hair cell induction assay using 6-day-postnatal mouse cochlea explants with hair cell damage.
Atoh1 Induction Assay in Mouse Cerebellar Neural Precursor Cells (NPCs)
Atoh1 induction assay was conducted with in vitro cultured cerebellar neural precursor cells isolated from neonatal transgenic Atoh1-GFP mice. Atoh1 expression is mainly regulated by the enhancer, and the nuclear GFP was driven by the cloned enhancer sequence at 3′ of Atoh1 which had high conservation among mammalians. So Atoh1 induction could be reflected by GFP activation in cerebellar neural precursor cells (Helms et al., Development 2000; 127: 1185-1196; Lumpkin et al., Gene Expression Patterns 2003; 3: 389-395). Postnatal 3 days pups were dissected for cerebellum tissue isolation. The cerebellum tissue was cut into small pieces, and dissociated with 0.05% Trypsin for about 10 minutes at 37° C., and then filtered with a 70 uM cell strainer. The cells were cultured as neuropsheres for the first 2 days in ultra-low attachment dish/well-plate with DMEM/F12+1% N2 &2% B27 with 1% P/S, 20 ng/ml rhFGF2 and 20 ng/ml rhEGF (R&D Systems). Then the spheres were plated to the matrigel (1:30 diluted in DMEM/F12)-coated tissue culture dish for monolayer culture. After 4.5-5.5 days culture in vitro (DIV), cells were dissociated with 0.05% trypsin into single cells, and frozen after cell number calculation.
The cerebellar neural precursor cells (NPCs) were re-thawed from stock and cultured for another 2 days before used for Atoh1 induction assay. On the first day of assay, NPCs were seeded into matrigel-coated 384 well plates (Black view-plate, PE) at 2500 cells/well. After over-night culture, the NPCs were treated with representative compounds of the present disclosure with 1:2 serial dilutions for 10 doses, from 50 μM to 200 nM, with DMSO as negative control. After 72 hours treatment without medium change, the cells were fixed with 4% formalin for staining. Assay plates were stained with GFP antibody (Abcam, #13970, 1:1000) to amplify endogenous GFP signal and then read by Cellomics.

Row | Structure (SMILES) | maximal fold induction
1 | O=C(NCCCCCN1CCNC(c2ccccc2)C1)c1cc(-c2cccs2)on1 (stereo not drawn) [Example 1, N-(5-(3-Phenylpiperazin-1-yl)pentyl)-5-(thiophen-2-yl)isoxazole-3-carboxamide] | 22.4
2 | CC(C)(C)OC(=O)N1CCN(CCCCCNC(=O)c2cc(-c3cccs3)on2)CC1 [Example 2, tert-Butyl 4-(5-(5-(thiophen-2-yl)isoxazole-3-carboxamido)pentyl)piperazine-1-carboxylate] | 35.4
3 | O=C(NCCCCCN1CCNCC1)c1cc(-c2cccs2)on1 [Example 3, N-(5-(Piperazin-1-yl)pentyl)-5-(thiophen-2-yl)isoxazole-3-carboxamide] | 21
4 | O=C(NCCCCCN1CC2CC1CN2)c1cc(-c2cccs2)on1 (stereo not drawn) [Example 4, N-(5-(2,5-Diazabicyclo[2.2.1]heptan-2-yl)pentyl)-5-(thiophen-2-yl)isoxazole-3-carboxamide] | 30.7
5 | C[C@@H]1CNCCN1CCCCCNC(=O)c1cc(-c2cccs2)on1 [Example 5, (R)—N-(5-(2-Methylpiperazin-1-yl)pentyl)-5-(thiophen-2-yl)isoxazole-3-carboxamide] | 32.5
6 | CC(C)C[C@H]1CN(CCCCCNC(=O)c2cc(-c3cccs3)on2)CCN1 [Example 6, (S)—N-(5-(3-isobutylpiperazin-1-yl)pentyl)-5-(thiophen-2-yl)isoxazole-3-carboxamide] | 9
7 | O=C(NCCCCCN1CCCC1)c1cc(-c2cccs2)on1 [Example 7, N-(5-(Pyrrolidin-1-yl)pentyl)-5-(thiophen-2-yl)isoxazole-3-carboxamide] | 31
8 | CN1CC2CCC(C1)N2CCCCCNC(=O)c1cc(-c2cccs2)on1 [Example 13, N-(5-(3-Methyl-3,8-diazabicyclo[3.2.1]octan-8-yl)pentyl)-5-(thiophen-2-yl)isoxazole-3-carboxamide] | 23
9 | CC(=O)NC1CN(CCCCCNC(=O)c2cc(-c3cccs3)on2)C1 [Example 16, N-(5-(3-Acetamidoazetidin-1-yl)pentyl)-5-(thiophen-2-yl)isoxazole-3-carboxamide] | 25.3
10 | CNC(=O)NC1CN(CCCCCNC(=O)c2cc(-c3cccs3)on2)C1 [Example 18, N-(5-(3-(3-Methylureido)azetidin-1-yl)pentyl)-5-(thiophen-2-yl)isoxazole-3-carboxamide] | 17.6
11 | CS(=O)(=O)NC1CN(CCCCCNC(=O)c2cc(-c3cccs3)on2)C1 [Example 19, N-(5-(3-(Methylsulfonamido)azetidin-1-yl)pentyl)-5-(thiophen-2-yl)isoxazole-3-carboxamide] | 31.7
12 | O=C(NC1CN(CCCCCNC(=O)c2cc(-c3cccs3)on2)C1)OCCO [Example 20, 2-Hydroxyethyl (1-(5-(5-(thiophen-2-yl)isoxazole-3-carboxamido)pentyl)azetidin-3-yl)carbamate] | 29.4
13 | N#CCCOC(=O)NC1CN(CCCCCNC(=O)c2cc(-c3cccs3)on2)C1 [Example 21, 2-Cyanoethyl (1-(5-(5-(thiophen-2-yl)isoxazole-3-carboxamido)pentyl)azetidin-3-yl)carbamate] | 13
14 | CS(=O)(=O)NC1CN(CCCCCNC(=O)c2cc(-c3ccc(F)cc3)on2)C1 [Example 22, 5-(4-Fluorophenyl)-N-(5-(3-(methylsulfonamido)azetidin-1-yl)pentyl)isoxazole-3-carboxamide] | 25.5
15 | CNC(=O)NC1CN(CCCCCNC(=O)c2cc(-c3ccc(F)cc3)on2)C1 [Example 23, 5-(4-Fluorophenyl)-N-(5-(3-(3-methylureido)azetidin-1-yl)pentyl)isoxazole-3-carboxamide] | 25.7
16 | COC(=O)N1CCN(CCCCCNC(=O)c2cc(-c3cccs3)on2)CC1 [Example 24, Methyl 4-(5-(5-(thiophen-2-yl)isoxazole-3-carboxamido)pentyl)piperazine-1-carboxylate] | 24
17 | CNC(=O)N1CCN(CCCCCNC(=O)c2cc(-c3cccs3)on2)CC1 [Example 25, N-(5-(4-(Methylcarbamoyl)piperazin-1-yl)pentyl)-5-(thiophen-2-yl)isoxazole-3-carboxamide] | 10.1
18 | O=C1CCN(CCCCCNC(=O)c2cc(-c3cccs3)on2)C1 [Example 26, N-(5-(3-Oxopyrrolidin-1-yl)pentyl)-5-(thiophen-2-yl)isoxazole-3-carboxamide] | 7.1
19 | CN(C)C(=O)C1CN(CCCCCNC(=O)c2cc(-c3ccc(F)cc3)on2)C1 [Example 28] | 28.6
20 | N#CC1CCN(CCCCCNC(=O)c2cc(-c3cccs3)on2)C1 (stereo not drawn) [Example 29] | 20.1
21 | CC(=O)N1CCN(CCCCCNC(=O)c2cc(-c3ccc(F)cc3)on2)CC1 [Example 30] | 13.4
22 | O=C(NCCCCCN1CCC(F)(F)CC1)c1cc(-c2cccs2)on1 [Example 31] | 16
23 | O=C(NCCCCCN1CCC(F)C1)c1cc(-c2cccs2)on1 (stereo not drawn) [Example 32] | 26.8
24 | O=C(NCCCCCN1CC(CO)C1)c1cc(-c2ccc(F)cc2)on1 [Example 33] | 26.1

Row | Structure (SMILES) | maximal fold induction
25 | O=C(NCCCCCN1CC2(COC2)C1)c1cc(-c2cccs2)on1 [Example 34] | 20.8
26 | N#CC1CN(CCCCCNC(=O)c2cc(-c3cccs3)on2)C1 [Example 35] | 29.7
27 | O=C1CN(CCCCCNC(=O)c2cc(-c3cccs3)on2)CCN1 [Example 37] | 13.5
28 | CN1CCN(CCCCCNC(=O)c2cc(-c3cccs3)on2)CC1=O [Example 38] | 34.3
29 | O=C(NCCCCCN1CCC(O)CC1)c1cc(-c2cccs2)on1 [Example 39] | 20.5
30 | O=C(NCCCCCN1CCN2CCCC2C1)c1cc(-c2cccs2)on1 (stereo not drawn) [Example 41] | 21.9
31 | C[C@H]1CN(CCCCCNC(=O)c2cc(-c3cccs3)on2)C[C@H](C)O1 [Example 43] | 21.5
32 | O=C(NCCCCCN1CC(F)C1)c1cc(-c2ccc(F)cc2)on1 [Example 44] | 34.7
33 | CN(C)C(=O)C1CN(CCCCCNC(=O)c2cc(-c3cccs3)on2)C1 [Example 46] | 18
34 | O=C(NCCCCCN1CCCC(F)C1)c1cc(-c2cccs2)on1 (stereo not drawn) [Example 50] | 23.4
35 | O=C(NCCCCCN1CCCC(O)C1)c1cc(-c2cccs2)on1 (stereo not drawn) [Example 57] | 15.4
36 | O=C(NCCCCCN1CC(F)(F)C1)c1cc(-c2cccs2)on1 [Example 58] | 10
37 | CN1C[C@H]2C[C@@H]1CN2CCCCCNC(=O)c1cc(-c2cccs2)on1 [Example 60] | 18.7
38 | CNC(=O)C1CN(CCCCCNC(=O)c2cc(-c3cccs3)on2)C1 [Example 61, N-(5-(3-(methylcarbamoyl)azetidin-1-yl)pentyl)-5-(thiophen-2-yl)isoxazole-3-carboxamide] | 33.7
39 | O=C(NCCCCCN1CC(C(=O)NC2CC2)C1)c1cc(-c2cccs2)on1 [Example 62] | 26.6
40 | CS(=O)(=O)C1CN(CCCCCNC(=O)c2cc(-c3cccs3)on2)C1 [Example 63] | 19.8
41 | N#CC1CN(CCCCCNC(=O)c2cc(-c3ccc(F)cc3)on2)C1 [Example 64] | 36.2
42 | COC1CN(CCCCCNC(=O)c2cc(-c3ccc(F)cc3)on2)C1 [Example 68] | 22.3
43 | O=C(NCCCCCN1CC2(COC2)C1)c1cc(-c2ccc(F)cc2)on1 [Example 69] | 33.5
44 | NS(=O)(=O)C1CN(CCCCCNC(=O)c2cc(-c3ccc(F)cc3)on2)C1 [Example 70] | 14
45 | O=C(NCCCCCN1CC(c2ncc[nH]2)C1)c1cc(-c2ccc(F)cc2)on1 [Example 71] | 26.8
46 | NS(=O)(=O)C1CN(CCCCCNC(=O)c2cc(-c3cccs3)on2)C1 [Example 72, N-(5-(3-sulfamoylazetidin-1-yl)pentyl)-5-(thiophen-2-yl)isoxazole-3-carboxamide] | 15.5
47 | CN1CCN(CCCCCNC(=O)c2cc(-c3ccc(F)s3)on2)CC1 [Example 73, 5-(5-Fluorothiophen-2-yl)-N-(5-(4-methylpiperazin-1-yl)pentyl)isoxazole-3-carboxamide] | 19.1
48 | CN1CCN(CCC(F)(F)CCNC(=O)c2cc(-c3cccs3)on2)CC1 [Example 74, N-(3,3-Difluoro-5-(4-methylpiperazin-1-yl)pentyl)-5-(thiophen-2-yl)isoxazole-3-carboxamide] | 19.4
